Laboratory results published in PMC6958329, “New ^55Co-labeled Albumin-Binding Folate Derivatives as Potential PET Agents for Folate Receptor Imaging” (Pharmaceuticals, 2019).
“And” between values parts separate entries of the source, which are not always exact repeats. Equal values may be shown once.

Legend:
FR-expressing KB cells = assay: Cell binding and internalization in KB cells; format: cell-based, human; conditions: for uptake blocked by co-incubation with folic acid: 0.7 mM folic acid
Method: Cellular assays were performed using the human cervical cancer KB cell line, which was cultured in folate-deficient cell media prior to use. The ^55Co-labeled folates were incubated with FR-expressing KB cells to determine total uptake (i.e., all cell-associated activity, both surface-bound and internalized) and the internalized fraction. To determine whether uptake was receptor-mediated, some cells were co-incubated with folic acid, which binds to FRs with high affinity to act as a blocking agent. […] The uptake profiles for both of the tested radiofolates were similar to each other and more similar to the previously reported [^68Ga]Ga-rf42 complex, in contrast to [^64Cu]Cu-rf42 [14]. In the case of [^55Co]Co-cm10, 26% of the total uptake was internalized with 95% of the uptake blocked by co-incubation of the cells with 0.7 mM of folic acid (Figure 3).
The human cervical cancer cell line KB (CCL-17) was purchased from ATCC (Manassas, VA, USA) and cells were cultured in Gibco folate-deficient RPMI 1640 growth medium (FFRPMI, Thermo Scientific, Waltham, MA, USA) supplemented with 10% fetal bovine serum, and Gibco 1% Antibiotic-Antimycotic. Cells were cultured following standard procedures and were incubated at 37 °C in a 5% CO2 environment and harvested using Gibco 0.25% trypsin-EDTA.
Cell internalization was performed similarly to a previously published procedure. KB cells were harvested, washed with supplemented FFRPMI, and resuspended in supplemented FFRPMI at a final concentration of 1 × 10^5 cells/mL for seeding. In […], 1 mL of the cell mixture was added to each well, and the plates were incubated overnight to allow for adhesion and growth. The following morning, the radiofolates were prepared at molar activities of 331.7 MBq/μmol (9.0 mCi/µmol) [^55Co]Co-cm10 and 299.5 MBq/μmol (8.1 mCi/μmol) in 50 μL final volume and then diluted in supplement free FFRPMI (either with or without 1 mM folic acid) to a final volume of 1 mL/well. The plates were collected, the supernatants discarded, and 1 mL of the dilute radiofolates in media was added to each well (n = 4 for each condition). […] The stripping buffer and lysed cell fractions were collected separately and counted using an automatic gamma counter.
The lysed cell fractions in NaOH were saved, and the total protein concentration for each sample was determined using a Pierce Micro BCA Protein Assay kit (Thermo Scientific, Waltham, MA, USA). The samples were vortexed vigorously prior to assaying, and were analyzed without further dilution. The results were used to normalize the measured radioactivity to the average protein content in each well.

[1] = In vitro stability in mouse serum (HPLC); format: in vitro ADME; conditions: 37 °C, normalized to 0 h, n = 3
Method: (§1) Stability of the ^55Co-labeled folates was monitored over a period of 24 h in phosphate buffered saline (PBS) and mouse serum, to monitor the stability of a dose prior to injection (for potential shipment to a PET center) and match the longest biodistribution time point, respectively. The percentage of the intact complex was monitored at 1 h, 4 h, and 24 h via radio-TLC (PBS) or HPLC (mouse serum). […] In PBS, both radioconjugates retained 93% or greater stability at 24 h. […] As a control, one group of replicate serum tubes contained only [^55Co]CoCl2. […] Therefore, the peak corresponding to free [^55Co]CoCl2 (tR = 2.2 min) was used to determine the overall serum stability of the ^55Co-labeled chelates, which was approximately 95% for each compound at 24 h.
(§2) The ^55Co-labeled folate derivatives were diluted 10-fold in 10 mM PBS (pH = 7.4) or whole mouse serum (EMD Millipore, Burlington, MA) in 1.5 mL centrifuge tubes to final volumes of 100 μL. The tubes were incubated at 37 °C with vortexing at 900 rpm using an Eppendorf ThermoMixer C (Eppendorf, Hamburg, Germany) equipped with a 1.5 mL heating block. In the case of PBS stability, three replicate tubes were prepared with average final activity concentrations of 37 kBq (1 μCi) [^55Co]Co-cm10/μL or 37 kBq (1 μCi) [^55Co]Co-rf42/μL, and the final concentrations of precursor were 0.07 mM of cm10 or rf42. The percent of the intact complex was determined by analyzing 1 μL aliquots of each solution by radio-TLC at 1 h, 4 h and 24 h. For mouse serum stability, three replicate tubes were prepared for each time point for each complex. The final average activity concentrations were 11.1 kBq (0.3 μCi) [^55Co]Co-cm10/μL and 7.4 kBq (0.2 μCi) [^55Co]Co-rf42/μL and 0.02 mM final folate concentration. A control sample was prepared for each time point that contained an average of 10.4 kBq/μL of [^55Co]CoCl2. At each time point, 300 μL of ACN was added to each tube to precipitate serum proteins. The tubes were centrifuged at 4500 rpm for 5 min using a benchtop microcentrifuge (Eppendorf, Hamburg, Germany) and the supernatants collected. The pellets were washed once more, and the supernatants were collected and combined with the first ACN wash. The activities in the pellets and supernatants were determined using a 2480 Wizard2 Automatic Gamma Counter (Perkin Elmer, Waltham, MA, USA) to determine the amount of activity associated with the protein pellet. To determine the percentage of intact complex, the supernatant was diluted 2-fold with water, and 100 μL of this mixture was injected into the HPLC.

[2] = In vitro stability in PBS (radio-TLC); format: physicochemical; conditions: 37 °C, normalized to 0 h, n = 3
Method: as §1, §2

Row | percent intact complex, mouse serum ([1]; 1 h) [%] | percent intact complex, mouse serum ([1]; 4 h) [%] | percent intact complex, mouse serum ([1]; 24 h) | percent intact complex, PBS ([2]; 1 h) [%] | percent intact complex, PBS ([2]; 4 h) [%] | percent intact complex, PBS ([2]; 24 h) | SMILES | fraction of total uptake internalized (FR-expressing KB cells) [%] | uptake blocked by co-incubation with folic acid (FR-expressing KB cells) [%]
1 | 98 ± 1 | 97.8 ± 0.6 | 94% and 95 ± 1% | 97 ± 2 | 95 ± 1 | 93% and 93.4 ± 0.3% | Nc1nc2ncc(CNc3ccc(C(=O)N[C@@H](CCC(=O)NC(CCCCNC(=O)CN4CCN(CC(=O)O)CCN(CC(=O)O)CCN(CC(=O)O)CC4)C(=O)NC(CCCCNC(=O)CCCc4ccc(I)cc4)C(=O)O)C(=O)O)cc3)nc2c(=O)[nH]1.[55Co] (stereo partly shown) [[^55Co]Co-cm10] | 26 | 95
2 | 97.5 ± 0.5 | 97.2 ± 0.4 | 94% and 94.6 ± 0.6% | 98 ± 2 | 95.6 ± 0.9 | 93% and 93 ± 3% | Nc1nc2ncc(CNc3ccc(C(=O)N[C@@H](CCC(=O)NC(CCCCNC(=O)CCC(C(=O)O)N4CCN(CC(=O)O)CCN(CC(=O)O)CC4)C(=O)NC(CCCCNC(=O)CCCc4ccc(I)cc4)C(=O)O)C(=O)O)cc3)nc2c(=O)[nH]1.[55Co] (stereo partly shown) [[^55Co]Co-rf42] | 24 | 97
